Results: US12550899B2, “Topramezone derivative and use thereof” (priority 2023, dated 2026)

Assays:
Format in all cases: in vivo
[1] = test system: Cyperus rotundus; assay: Laboratory bioactivity efficacy test 2.1 (foliar spray); details: for GR50 / GR90: fresh weight control efficacy 14 days after application
Description: (§1) Refer to the “Pesticides guidelines for laboratory bioactivity tests Part 4: Foliar spray application test for herbicide activity, NY/T 1155.4-2006”.
(§2) • grassy weeds: Setaria viridis, Chloris virgata; • sedge: Cyperus rotundus; • Broadleaf weeds: Amaranthus retroflexus, Chenopodium album, Acalypha australis, Commelina communis, Convolvulus arvensis, Cirsium setosum, and Eclipta prostrata. 2.1.3 Test Conditions
(§3) The soil used for the test was a mixture of surface 20 cm loam and vermiculite, mixed in a volume ratio of 3:1 to form a culture soil. The test corn was cultured in a glass greenhouse with a temperature ranging from 25° C. to 35° C. and under natural light.
(§4) A measured quantity of weed seeds were sown in plastic pots with a diameter of 9 cm, and covered with 1-2 mm of soil. The ports were then placed in enamel trays filled with water, and watered by bottom irrigation. After sowing, the pots were transferred to the glass greenhouse for cultivation and growth.
(§5) Five dosages were set for Compound I, Compound II and the control herbicide Topramezone, which were 3.75, 7.5, 15, 30 and 60 grams of active ingredient per hectare respectively. In addition, a blank control was also prepared.
(§6) The required amount of the herbicide was accurately measured out, an appropriate amount of emulsifier and organic solvent were added to dissolve the herbicide, and then a certain amount of water was added therein until the herbicide was diluted to the required dosage by using the serial dilution method for standby.
(§7) The fresh weight of each treatment was surveyed 14 days after the application of the herbicide. The fresh weight control efficacy was calculated according to the following formula: fresh weight control efficacy (%)=(control fresh weight−treatment fresh weight)/control fresh weight×100.
(§8) A DPS statistical software was used to conduct regression analysis on the logarithmic values of the herbicide dosage and the probit values of the corn fresh weight control efficacy, and the correlation coefficient, GR50, GR90, and the 95% confidence interval were calculated.

[2] = test system: Commelina communis; assay: as above; details: for GR50 / GR90: fresh weight control efficacy 14 days after application
Description: as §1, §2, §3, §4, §5, §6, §7, §8

[3] = test system: Amaranthus retroflexus; assay: as above; details: for GR50 / GR90: fresh weight control efficacy 14 days after application
Description: as §1, §2, §3, §4, §5, §6, §7, §8

[4] = test system: grassy weeds and broadleaf weeds; assay: Laboratory bioactivity efficacy test 2.2, visual observation of weeds
Protocol: • grassy weeds: Digitaria sanguinalis, Eleusine indica, Echinochloa crusgalli; • Broadleaf weeds: Portulaca oleracea, Abutilon theophrasti medicus. 2.2.2 Test Conditions
The soil used for the test was a mixture of surface 20 cm loam and vermiculite, mixed in a volume ratio of 3:1 to form a culture soil. The test weeds were cultured in a glass greenhouse with a temperature ranging from 25° C. to 35° C. and under natural light.
Quantified seeds of Digitaria sanguinalis, Eleusine indica, Echinochloa crusgalli, Portulaca oleracea, and Abutilon theophrasti medicus were sown in plastic pots with a diameter of 9 cm, and covered with 1-2 mm of soil. The ports were then placed in enamel trays filled with water, and watered by bottom irrigation. After the water seeped to the soil surface, the pots were transferred to the glass greenhouse for standby.
as §5
The required amount of the herbicide was accurately measured out and directly added with water, which was diluted to the required dosage by using the serial dilution method for standby.
(§9) The test was conducted on grassy weeds at the two-leaf and one-heart stage, Abutilon theophrasti medicus at the 2-true-leaf stage, and Portulaca oleracea at the 3-5-leaf stage, with the stems and leaves both sprayed uniformly. The ASS-4 automatic control spraying system with a fan-shaped nozzle was used indoors for herbicide application. Depending on the nozzle pressure and flow rate, 50 mL of herbicide solution was applied to a spraying area of 1.1 m^2 (which was equivalent to the water consumption of 30 L per mu). The system's operating speed was calibrated. The plastic pots to be treated were arranged evenly on the spraying platform to ensure uniform treatment. The spray pressure was set to 0.35 MPa, and the flow rate of the fan-shaped nozzle was set to 800 mL/min. The spraying was carried out in sequence from the low dosage to the high dosage. Each treatment was repeated two to four times.
(§10) The herbicide was applied once. After spraying, the pots were air-dried for one day and then placed in the glass greenhouse. Regular watering was conducted to maintain moisture.
The damage symptoms of the weeds (such as growth inhibition, chlorosis, malformation, etc.) were carefully recorded at 3, 7, 10, and 20 days after herbicide application. A visual comparison of the herbicide effectiveness was made. At 20 days post-application, the fresh weight of the aboveground parts of the weeds from each treatment group was measured, and the fresh weight control efficacy was calculated.

[5] = test system: Corn (White Waxy Corn); assay: Corn safety laboratory test; details: for Fresh Weight / Fresh Weight Control Efficacy: 15 days after application
Protocol: (§11) Three corn varieties: Zhengdan 958, white waxy corn, and sweet corn (Runhua sweet corn).
as §3
as §4, with “corn” for “weed”, “15” for “9”, “2-3 cm” for “1-2 mm”
(§12) In the corn safety test, dosages were set for the two Compounds (Compound I of the present invention and Compound II of the present invention) and the control herbicide Topramezone, which were 15, 30, 60, and 120 grams of active ingredient per hectare respectively. In addition, a blank control was also prepared.
as §6
(§13) Corn stems and leaves were uniformly sprayed at the 3-4-leaf stage.
as §9, with “ASS-3” for “test was conducted on grassy weeds at the two-leaf and one-heart stage, Abutilon theophrasti medicus at the 2-true-leaf stage, and Portulaca oleracea at the 3-5-leaf stage, with the stems and leaves both sprayed uniformly. The ASS-4”, “three” for “two to four”
as §10
(§14) After application of the herbicide, whether there were any phytotoxic symptoms in the corn for each treatment was recorded. If yes, the phytotoxicity symptoms and grade were recorded in detail. 15 days after application, the fresh weight of the corn in each treatment was measured and the fresh weight control efficacy was calculated to assess the safety of the herbicide on the corn.
(§15) The treatment results were calculated according to the following formula: fresh weight control efficacy (%)=(control fresh weight−treatment fresh weight)/control fresh weight×100.

[6] = test system: Corn (Zhengdan 958); assay: Corn safety laboratory test; details: for Fresh Weight / Fresh Weight Control Efficacy: 15 days after application
Protocol: as §11, §3
as §4, with “corn” for “weed”, “15” for “9”, “2-3 cm” for “1-2 mm”
as §12, §6, §13
as §9, with “ASS-3” for “test was conducted on grassy weeds at the two-leaf and one-heart stage, Abutilon theophrasti medicus at the 2-true-leaf stage, and Portulaca oleracea at the 3-5-leaf stage, with the stems and leaves both sprayed uniformly. The ASS-4”, “three” for “two to four”
as §10, §14, §15

[7] = test system: Corn (Sweet Corn); assay: Corn safety laboratory test; details: for Fresh Weight / Fresh Weight Control Efficacy: 15 days after application
Protocol: as §11, §3
as §4, with “corn” for “weed”, “15” for “9”, “2-3 cm” for “1-2 mm”
as §12, §6, §13
as §9, with “ASS-3” for “test was conducted on grassy weeds at the two-leaf and one-heart stage, Abutilon theophrasti medicus at the 2-true-leaf stage, and Portulaca oleracea at the 3-5-leaf stage, with the stems and leaves both sprayed uniformly. The ASS-4”, “three” for “two to four”
as §10, §14, §15

[8] = 3 to 7 days after application, grassy weeds and broadleaf weeds like Portulaca oleracea
[9] = White Waxy Corn, dosage 15 g a.i./ha
[10] = White Waxy Corn, dosage 30 g a.i./ha
[11] = White Waxy Corn, dosage 60 g a.i./ha
[12] = White Waxy Corn, dosage 120 g a.i./ha
[13] = Zhengdan 958, dosage 15 g a.i./ha
[14] = Zhengdan 958, dosage 30 g a.i./ha
[15] = Zhengdan 958, dosage 60 g a.i./ha
[16] = Zhengdan 958, dosage 120 g a.i./ha
[17] = Sweet Corn, dosage 15 g a.i./ha
[18] = Sweet Corn, dosage 30 g a.i./ha
[19] = Sweet Corn, dosage 60 g a.i./ha
[20] = Sweet Corn, dosage 120 g a.i./ha

Compound: COC(=O)OC(C)Oc1c(C(=O)c2ccc(S(C)(=O)=O)c(C3=NOCC3)c2C)cnn1C (centres unmarked) [Compound I, 1-((4-(3-(4,5-dihydroisoxazol-3-yl)-2-methyl-4-(methylsulfonyl)benzoyl)-1-methyl-1H-pyrazol-5-yl)oxy)ethyl methyl carbonate]
- Control efficacy compared with Topramezone (in words) [1]: better control efficacy
- GR50 [1]: 11.78 g a.i./ha
- GR90 [1]: 29.57 g a.i./ha
- Control efficacy compared with Topramezone (in words) [2]: significantly better control efficacy
- Efficacy relative to that of Topramezone [2]: approximately 2 times
- GR50 [2]: 4.98 g a.i./ha
- GR90 [2]: 16.38 g a.i./ha
- Control efficacy compared with Topramezone (in words) [3]: significantly better control efficacy
- Efficacy relative to that of Topramezone [3]: approximately 2 times
- GR50 [3]: 2.86 g a.i./ha
- GR90 [3]: 5.64 g a.i./ha
- Visual observation of weeds [4, 8]: gradually became whitened and withered
- Visual observation of weeds ([4]; 10 days after application): excellent treatment effects
- Visual observation of weeds ([4]; 20 days after application): dried up and died
- Corn Growth Status ([5]; in vivo): Good, Normal Growth
- Growth of corn / phytotoxicity (in words) ([5]; in vivo): normal, without causing any phytotoxicity
- Corn Growth Status ([6]; in vivo): Good, Normal Growth
- Growth of corn / phytotoxicity (in words) ([6]; in vivo): normal, without causing any phytotoxicity
- Corn Growth Status ([7]; in vivo): Good, Normal Growth
- Growth of corn / phytotoxicity (in words) ([7]; in vivo): normal, without causing any phytotoxicity

Compound: Cc1c(C(=O)c2cnn(C)c2OC(=O)C(C)(C)C)ccc(S(C)(=O)=O)c1C1=NOCC1 [Compound II, 4-(3-(4,5-dihydroisoxazol-3-yl)-2-methyl-4-(methylsulfonyl)benzoyl)-1-methyl-1H-pyrazol-5-yl pivalate]
- GR50 [1]: 15.68 g a.i./ha
- GR90 [1]: 39.11 g a.i./ha
- GR50 [2]: 13.73 g a.i./ha
- GR90 [2]: 39.85 g a.i./ha
- GR50 [3]: 4.64 g a.i./ha
- GR90 [3]: 11.19 g a.i./ha
- Visual observation of weeds [4, 8]: gradually became whitened and withered
- Visual observation of weeds ([4]; 10 days after application): excellent treatment effects
- Visual observation of weeds ([4]; 20 days after application): dried up and died
- Corn Growth Status ([5]; in vivo): Good, Normal Growth
- Safety to corn (in words) ([5]; in vivo): safe
- Corn Growth Status ([6]; in vivo): Good, Normal Growth
- Growth of corn / phytotoxicity (in words) ([6]; in vivo): normal, without causing any phytotoxicity
- Corn Growth Status ([7]; in vivo): Good, Normal Growth
- Safety to corn (in words) ([7]; in vivo): safe

Compound: Cc1c(C(=O)c2cnn(C)c2O)ccc(S(C)(=O)=O)c1C1=NOCC1 [Topramezone]
- GR50 [1]: 16.11 g a.i./ha
- GR90 [1]: 39.22 g a.i./ha
- GR50 [2]: 14.38 g a.i./ha
- GR90 [2]: 40.29 g a.i./ha
- GR50 [3]: 4.05 g a.i./ha
- GR90 [3]: 11.29 g a.i./ha
- Visual observation of weeds [4, 8]: gradually became whitened and withered
- Visual observation of weeds ([4]; 10 days after application): excellent treatment effects
- Visual observation of weeds ([4]; 20 days after application): dried up and died
- Corn Growth Status [5, 9]: Good, Normal Growth
- Fresh Weight [5, 9]: 9.7 g
- Fresh Weight Control Efficacy [5, 9]: −2.7%
- Corn Growth Status [5, 10]: Good, Normal Growth
- Fresh Weight [5, 10]: 9.4 g
- Fresh Weight Control Efficacy [5, 10]: 0.3%
- Corn Growth Status [5, 11]: Good, Normal Growth
- Fresh Weight [5, 11]: 9.5 g
- Fresh Weight Control Efficacy [5, 11]: −0.3%
- Corn Growth Status [5, 12]: Good, Normal Growth
- Fresh Weight [5, 12]: 9.0 g
- Fresh Weight Control Efficacy [5, 12]: 4.5%
- Growth of corn / phytotoxicity (in words) ([5]; white waxy corn, highest dosage, 120 grams of active ingredient per hectare): normal, without causing any phytotoxicity
- Growth of corn / phytotoxicity (in words) ([6]; Zhengdan 958, all dosages): normal
- Corn Growth Status [6, 13]: Good, Normal Growth
- Fresh Weight [6, 13]: 15.2 g
- Fresh Weight Control Efficacy [6, 13]: −0.5%
- Corn Growth Status [6, 14]: Good, Normal Growth
- Fresh Weight [6, 14]: 14.9 g
- Fresh Weight Control Efficacy [6, 14]: 1.8%
- Corn Growth Status [6, 15]: Good, Normal Growth
- Fresh Weight [6, 15]: 15.2 g
- Fresh Weight Control Efficacy [6, 15]: −0.5%
- Corn Growth Status [6, 16]: Good, Normal Growth
- Fresh Weight [6, 16]: 15.6 g
- Fresh Weight Control Efficacy [6, 16]: −2.8%
- Corn Growth Status [7, 17]: Good, Normal Growth
- Fresh Weight [7, 17]: 7.6 g
- Fresh Weight Control Efficacy [7, 17]: −2.0%
- Corn Growth Status [7, 18]: Good, Normal Growth
- Fresh Weight [7, 18]: 7.4 g
- Fresh Weight Control Efficacy [7, 18]: −0.3%
- Corn Growth Status [7, 19]: Good, Normal Growth
- Fresh Weight [7, 19]: 7.4 g
- Fresh Weight Control Efficacy [7, 19]: −0.3%
- Corn Growth Status [7, 20]: Good, Normal Growth
- Fresh Weight [7, 20]: 7.3 g
- Fresh Weight Control Efficacy [7, 20]: 1.0%
- Safety to corn (in words) ([7]; sweet corn, all dosages): safe
